Reference: ChEMBL document CHEMBL5665443, “Enzyme Inhibitor Single Concentration assay results for EUbOPEN Chemogenomics Library” (2024)

Experiments:
Details in all cases: Hit No
[1] = target: Uracil-DNA glycosylase (Homo sapiens) (UniProt P13051);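 note: UNG excision on a quenched double-stranded DNA oligo probe, with APE1 added for strand incision and turnover, read as fluorescence at 594 nm as strands separate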
Description: Inhibition of UNG by quantifying inhibition of UNG-mediated cleavage and dissociation of quenched duplex DNA oligonucleotides, measured as fluorescence at 594 nm. To generate a functional strand incision and increase turn-over this assay is coupled to APE1.

[2] = target: Methyl-CpG-binding domain protein 4 (Homo sapiens) (UniProt O95243);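 note: MBD4 activity read as fluorescence at 594 nm from cleavage and release of a quenched duplex DNA oligonucleotide, with APE1 coupled to incise the strand and raise turnover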
Sequence of Methyl-CpG-binding domain protein 4 (Homo sapiens) (O95243 whole entry, the tested form may be a part): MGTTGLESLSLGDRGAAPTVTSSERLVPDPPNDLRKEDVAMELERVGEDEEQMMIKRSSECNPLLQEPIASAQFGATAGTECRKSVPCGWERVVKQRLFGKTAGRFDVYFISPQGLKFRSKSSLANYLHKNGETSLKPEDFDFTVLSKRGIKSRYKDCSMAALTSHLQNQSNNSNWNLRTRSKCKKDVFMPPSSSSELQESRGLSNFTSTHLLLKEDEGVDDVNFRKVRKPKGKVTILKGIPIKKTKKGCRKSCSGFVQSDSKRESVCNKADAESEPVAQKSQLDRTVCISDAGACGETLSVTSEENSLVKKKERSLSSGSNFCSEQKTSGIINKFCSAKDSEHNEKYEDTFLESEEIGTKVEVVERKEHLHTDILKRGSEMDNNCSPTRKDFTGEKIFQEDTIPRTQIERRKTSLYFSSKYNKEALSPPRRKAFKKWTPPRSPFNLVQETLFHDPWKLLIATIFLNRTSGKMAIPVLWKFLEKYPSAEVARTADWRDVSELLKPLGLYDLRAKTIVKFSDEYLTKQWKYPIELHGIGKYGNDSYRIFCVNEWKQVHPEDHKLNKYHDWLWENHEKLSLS
Description: Inhibition of MBD4 by quantifying inhibition of MBD4-mediated cleavage and dissociation of quenched duplex DNA oligonucleotides, measured as fluorescence at 594 nm. To generate a functional strand incision and increase turn-over this assay is coupled to APE1.

[3] = target: T1, Single-strand selective monofunctional uracil DNA glycosylase (Homo sapiens) (UniProt Q53HV7);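 note: enzymatic SMUG1 assay coupled with APE1, reading fluorescence at 594 nm released when a quenched double-stranded DNA oligonucleotide substrate is cleaved and separated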
T1 sequence (whole entry): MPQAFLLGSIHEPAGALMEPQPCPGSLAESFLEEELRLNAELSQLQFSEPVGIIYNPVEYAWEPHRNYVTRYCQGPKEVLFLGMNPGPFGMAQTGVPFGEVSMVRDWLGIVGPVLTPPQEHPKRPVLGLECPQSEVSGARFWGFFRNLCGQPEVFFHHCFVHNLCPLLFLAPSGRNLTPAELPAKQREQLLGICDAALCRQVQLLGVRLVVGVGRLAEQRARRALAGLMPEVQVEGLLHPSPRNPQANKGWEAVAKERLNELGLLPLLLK
Description: Inhibition of SMUG1 by quantifying inhibition of SMUG1-mediated cleavage and dissociation of quenched duplex DNA oligonucleotides, measured as fluorescence at 594 nm. To generate a functional strand incision and increase turn-over this assay is coupled to APE1.

[4] = target: N-glycosylase/DNA lyase (Homo sapiens) (UniProt O15527);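 note: OGG1 cleavage of a quenched duplex DNA oligonucleotide, coupled to APE1 for strand incision, read as fluorescence at 594 nm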
Sequence of N-glycosylase/DNA lyase (Homo sapiens) (O15527 whole entry): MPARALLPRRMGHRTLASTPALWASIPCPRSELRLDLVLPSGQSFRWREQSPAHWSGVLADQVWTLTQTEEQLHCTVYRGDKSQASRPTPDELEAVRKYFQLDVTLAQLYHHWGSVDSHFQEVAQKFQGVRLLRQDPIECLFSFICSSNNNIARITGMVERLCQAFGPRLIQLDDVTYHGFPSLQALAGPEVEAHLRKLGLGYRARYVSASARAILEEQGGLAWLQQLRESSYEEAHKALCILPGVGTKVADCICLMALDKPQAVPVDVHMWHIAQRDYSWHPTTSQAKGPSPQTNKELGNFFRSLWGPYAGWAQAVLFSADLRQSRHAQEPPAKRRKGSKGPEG
Description: Inhibition of OGG1 by quantifying inhibition of OGG1-mediated cleavage and dissociation of quenched duplex DNA oligonucleotides, measured as fluorescence at 594 nm. To generate a functional strand incision and increase turn-over this assay is coupled to APE1.

[5] = target: T2, Endonuclease III-like protein 1 (Homo sapiens) (UniProt P78549);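 note: enzyme assay tracking NTHL1 cutting and release of a quenched double-stranded DNA oligo substrate, read as fluorescence at 594 nm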
T2 sequence (whole entry): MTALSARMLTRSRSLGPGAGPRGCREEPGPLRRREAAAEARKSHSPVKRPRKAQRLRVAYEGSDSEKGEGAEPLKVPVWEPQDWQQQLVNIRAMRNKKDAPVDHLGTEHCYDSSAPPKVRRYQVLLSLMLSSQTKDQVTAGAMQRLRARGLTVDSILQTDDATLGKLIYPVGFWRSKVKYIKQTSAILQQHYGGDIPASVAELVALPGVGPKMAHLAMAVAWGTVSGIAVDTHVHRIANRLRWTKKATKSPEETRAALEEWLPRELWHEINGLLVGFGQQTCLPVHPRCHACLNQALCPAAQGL
Description: Inhibition of NTHL1 by quantifying inhibition of NTHL1-mediated cleavage and dissociation of quenched duplex DNA oligonucleotides, measured as fluorescence at 594 nm.

[6] = target: T3, Endonuclease 8-like 2 (Homo sapiens) (UniProt Q969S2);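 note: fluorescence at 594 nm reports NEIL2 cutting and release of a quenched double-stranded DNA oligo substrate, reduced signal read as inhibition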
T3 sequence (whole entry): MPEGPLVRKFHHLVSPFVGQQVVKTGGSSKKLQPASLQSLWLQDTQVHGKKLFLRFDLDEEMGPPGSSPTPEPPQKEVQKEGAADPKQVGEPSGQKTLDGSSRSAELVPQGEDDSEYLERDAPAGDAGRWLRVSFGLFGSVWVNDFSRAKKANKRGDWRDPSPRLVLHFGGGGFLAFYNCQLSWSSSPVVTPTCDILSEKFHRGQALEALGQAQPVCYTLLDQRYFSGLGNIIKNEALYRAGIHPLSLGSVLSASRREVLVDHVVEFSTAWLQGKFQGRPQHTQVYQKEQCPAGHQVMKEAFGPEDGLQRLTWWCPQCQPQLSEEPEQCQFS
Description: Inhibition of NEIL2 by quantifying inhibition of NEIL2-mediated cleavage and dissociation of quenched duplex DNA oligonucleotides, measured as fluorescence at 594 nm.

[7] = target: G/T mismatch-specific thymine DNA glycosylase (Homo sapiens) (UniProt Q13569);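 note: human TDG cleavage of quenched duplex DNA oligonucleotides coupled to APE1, strand release read as fluorescence at 594 nm, inhibition of TDG activity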
Sequence of G/T mismatch-specific thymine DNA glycosylase (Homo sapiens) (Q13569 whole entry): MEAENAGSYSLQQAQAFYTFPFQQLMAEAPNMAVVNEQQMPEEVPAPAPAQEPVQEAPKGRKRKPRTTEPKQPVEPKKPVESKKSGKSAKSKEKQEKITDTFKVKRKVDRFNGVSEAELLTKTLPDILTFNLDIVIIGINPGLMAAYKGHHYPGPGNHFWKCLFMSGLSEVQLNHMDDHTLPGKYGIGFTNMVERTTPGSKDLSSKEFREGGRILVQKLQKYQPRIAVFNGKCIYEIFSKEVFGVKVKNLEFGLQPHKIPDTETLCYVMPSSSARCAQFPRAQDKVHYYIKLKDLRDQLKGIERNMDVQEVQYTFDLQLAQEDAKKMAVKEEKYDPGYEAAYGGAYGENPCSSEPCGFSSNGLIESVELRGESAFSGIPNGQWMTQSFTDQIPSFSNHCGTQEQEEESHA
Description: Inhibition of TDG by quantifying inhibition of TDG-mediated cleavage and dissociation of quenched duplex DNA oligonucleotides, measured as fluorescence at 594 nm. To generate a functional strand incision and increase turn-over this assay is coupled to APE1.

[8] = target: Endonuclease 8-like 1 (Homo sapiens) (UniProt Q96FI4);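 note: fluorescence at 594 nm from quenched duplex DNA oligonucleotides released by NEIL1 cleavage and strand separation, reported as reduction of this enzyme activity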
Sequence of Endonuclease 8-like 1 (Homo sapiens) (Q96FI4 whole entry): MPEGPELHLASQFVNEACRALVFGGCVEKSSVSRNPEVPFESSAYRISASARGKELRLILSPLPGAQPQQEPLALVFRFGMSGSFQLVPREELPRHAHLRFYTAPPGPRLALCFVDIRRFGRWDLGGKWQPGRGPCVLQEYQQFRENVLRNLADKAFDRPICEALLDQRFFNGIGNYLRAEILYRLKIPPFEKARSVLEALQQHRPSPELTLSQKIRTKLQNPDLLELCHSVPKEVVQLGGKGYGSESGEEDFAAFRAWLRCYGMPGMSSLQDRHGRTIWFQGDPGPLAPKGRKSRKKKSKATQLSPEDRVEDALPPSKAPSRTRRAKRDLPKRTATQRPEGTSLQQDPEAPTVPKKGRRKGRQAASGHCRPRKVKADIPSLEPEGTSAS
Description: Inhibition of NEIL1 by quantifying inhibition of NEIL1-mediated cleavage and dissociation of quenched duplex DNA oligonucleotides, measured as fluorescence at 594 nm.

Sequence of Uracil-DNA glycosylase (Homo sapiens) (P13051 whole entry, the tested form may be a part): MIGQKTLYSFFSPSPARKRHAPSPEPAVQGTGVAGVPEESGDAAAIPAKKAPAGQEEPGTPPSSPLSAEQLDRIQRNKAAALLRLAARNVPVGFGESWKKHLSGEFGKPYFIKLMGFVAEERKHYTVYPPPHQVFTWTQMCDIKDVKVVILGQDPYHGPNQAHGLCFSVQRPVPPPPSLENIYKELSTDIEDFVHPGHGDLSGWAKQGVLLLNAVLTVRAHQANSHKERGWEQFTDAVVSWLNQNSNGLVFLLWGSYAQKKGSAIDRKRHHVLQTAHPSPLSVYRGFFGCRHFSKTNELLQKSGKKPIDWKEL

| SMILES | inhibition ([1]; Compound Concentration 10.0 uM) [%] | inhibition ([2]; Compound Concentration 10.0 uM) [%] | inhibition ([3]; Compound Concentration 10.0 uM) [%] | inhibition ([4]; Compound Concentration 10.0 uM) [%] | inhibition ([5]; Compound Concentration 10.0 uM) [%] | inhibition ([6]; Compound Concentration 10.0 uM) [%] | inhibition ([7]; Compound Concentration 10.0 uM) [%] | inhibition ([1]; Compound Concentration 1.0 uM) [%] | inhibition ([2]; Compound Concentration 1.0 uM) [%] | inhibition ([3]; Compound Concentration 1.0 uM) [%] | inhibition ([4]; Compound Concentration 1.0 uM) [%] | inhibition ([5]; Compound Concentration 1.0 uM) [%] | inhibition ([6]; Compound Concentration 1.0 uM) [%] | inhibition ([7]; Compound Concentration 1.0 uM) [%] | inhibition ([8]; Compound Concentration 1.0 uM) [%] | inhibition ([8]; Compound Concentration 10.0 uM) [%] |
| --- | --- | --- | --- | --- | --- | --- | --- | --- | --- | --- | --- | --- | --- | --- | --- | --- |
| CNC(=O)COc1cc2cc(Nc3nc(N4CCC(C(=O)N(C)C)CC4)ncc3Cl)cc(OC)c2n(C)c1=O | 0.116 | 50.6 | 3.52 | 4.56 | -0.63 | -6.1 | 86.8 | – | – | – | – | – | – | – | – | – |
| CCOC(=O)c1ccc(CN(Cc2ccc(-c3cccc(S(C)(=O)=O)c3)cc2)S(=O)(=O)c2c(C)cc(C)cc2C)o1 | 0.52 | 46 | 14.1 | 0.574 | -3.26 | -7.63 | 35 | – | – | – | – | – | – | – | – | – |
| CCCCCCCCCCCCC/C=C/[C@@H](O)[C@@H](N)COP(=O)([O-])OCC[N+](C)(C)C | -1 | -8.69 | -8.04 | 5.72 | -8.51 | -4.94 | – | – | – | – | – | – | – | – | – | – |
| C[C@H](c1ccnc(Nc2nc3ccc(-c4cc(N(C)C)ncn4)cc3[nH]2)c1)N1CCN(C(=O)CC(F)(F)F)CC1 | 1.7 | 37.6 | 11.6 | -2.48 | -3.92 | -5.59 | 87.4 | – | – | – | – | – | – | – | – | – |
| CCCCN(CCCC)C(=O)CN1C[C@H](c2cc(OC)c3c(c2)OCO3)[C@@H](C(=O)O)[C@@H]1CC(C)(C)CCC | – | – | – | – | – | – | – | -0.907 | 62.3 | 14.3 | 14.6 | 11.2 | -9.42 | 54.3 | – | – |
| O=C(Nc1cccnn1)N1CCC(=Cc2cccc(Oc3ccc(C(F)(F)F)cn3)c2)CC1 | 0.719 | 65.2 | 17 | -7.84 | 5.94 | -7.12 | 59.6 | – | – | – | – | – | – | – | – | – |
| CCc1cc(Nc2nccc(-c3c(-c4ccc(OC)c(C(=O)Nc5c(F)cccc5F)c4)nc4ccccn34)n2)c(OC)cc1N1CCC(N2CCN(S(C)(=O)=O)CC2)CC1 | – | – | – | – | – | – | – | 0.56 | 32.9 | 21.4 | 10.7 | -1.31 | – | 50.7 | -8.84 | – |
| COc1cccc(CNC(=O)c2nc3scc(CN(C)Cc4ccccc4)c3c(=O)[nH]2)c1 | 2.11 | 59.5 | 12.8 | 4.36 | -9.83 | – | 43.2 | – | – | – | – | – | – | – | – | -6.05 |
| C[C@H](c1ccc(F)cc1)N(Cc1cccc(C(=O)O)c1)C(=O)c1cnc2ccccc2c1 | 1.51 | 54.2 | 15.5 | -1.34 | 5.94 | 0.531 | 99.9 | – | – | – | – | – | – | – | – | – |
| COc1c(OCCCN2CCOCC2)ccc2c1N=C(NC(=O)c1cnc(N)nc1)N1CCN=C21 | – | – | – | – | – | – | – | -3.63 | -2.38 | 20 | 5.38 | 4.97 | – | 26.4 | -8.98 | – |
| C[C@H](c1ccc(F)cc1)N(Cc1ccc(Cl)c(C(=O)O)c1)C(=O)c1cnc2ccccc2c1 | 1.41 | 52.3 | 16.2 | 8.39 | -7.86 | -8.14 | 31.5 | – | – | – | – | – | – | – | – | – |
| O=c1nc(-c2ccccn2)sc2ccccc12 | -3.04 | 53.8 | 5.03 | 10.7 | 2 | 17.4 | 99.2 | – | – | – | – | – | – | – | – | – |
| COc1ccc2c(c1)O[C@@H](c1ccc(OC)c(OC)c1)C[C@H]2NC(=O)C1(c2ccc3c(c2)OC(F)(F)O3)CC1 | -6.88 | 35.4 | -5.34 | -6.31 | -7.86 | -1.51 | 25.6 | – | – | – | – | – | – | – | – | – |
| Cc1n[nH]c2ncc(C(=O)N3CCC[C@H]3c3ccc(Cl)cc3)cc12 | – | – | – | – | – | – | – | -1.69 | 9.29 | 8.72 | -6.69 | 7.06 | – | 31.7 | -3.69 | – |
| O=C1NC(c2ccccn2)Sc2ccccc21 (configuration not stated) | -1.67 | 55.9 | 8.24 | -4.34 | -7.2 | -4.83 | 34 | – | – | – | – | – | – | – | – | – |
| O=C(c1ccc(F)cc1)N1CC(COc2ccc(Br)cc2)(C(=O)O)C1 | – | – | – | – | – | – | – | 0.879 | 67.1 | 15.2 | -9.75 | 0.685 | – | 52.8 | -7.26 | – |
| CN([C@@H]1CCc2c(CC(=O)O)c3ccccc3n2C1)S(=O)(=O)c1ccc(F)cc1 | 2.73 | 28.2 | 15.5 | 5.88 | 10.6 | -4.06 | 9.01 | – | – | – | – | – | – | – | – | – |
| O=C(NCCS(=O)(=O)c1ccc(C(F)(F)F)cn1)c1ccc(Cl)cc1 | 0.131 | 55.1 | 13.1 | -0.41 | -0.63 | 1.3 | 97.2 | – | – | – | – | – | – | – | – | – |
| CN(C)C(=O)Cn1cc(-c2nc(C3(c4ccc(-c5cnc(N)nc5)cc4)CC3)no2)cn1 | 1.06 | 22.8 | 11.1 | 28.7 | -5.89 | 0.0213 | 43.7 | – | – | – | – | – | – | – | – | – |
| Cc1cnc(Nc2ccc(F)cc2Cl)nc1-c1c[nH]c(C(=O)N[C@H](CO)c2cccc(Cl)c2)c1 | – | – | – | – | – | – | – | 2.73 | -4.19 | 23.9 | -8.42 | -6.19 | – | 46.4 | -0.127 | – |
| COc1cnccc1Nc1nc(-c2nn(Cc3c(F)cc(OCCO)cc3F)c3ccccc23)ncc1OC | -1.2 | 52.5 | 6.21 | 14.4 | -7.86 | – | 11.1 | 1.12 | 47.4 | 7.99 | – | 4.97 | -7.84 | 29.7 | – | – |
| CSc1cccnc1N1CCN(Cc2nc3ccccc3[nH]2)CC1 | 0.535 | 54.7 | 6.69 | 6.57 | -5.89 | – | 19.8 | – | – | – | – | – | – | – | – | – |
